Assay results reported in patent US8927717B1, “Thiochromeno[2,3-c]quinolin-12-one derivatives, preparation method and application thereof” (National Defense Medical Center, priority 2014, dated 2015).

How the values were obtained:
Format in all cases: cell-based
[1] = tested on: SNB-19; details: SNB-19
[2] = tested on: PC-3; details: PC-3
[3] = tested on: SNB-75; details: SNB-75
[4] = tested on: T-47D; details: T-47D
[5] = tested on: K-562; details: K-562
[6] = tested on: HOP-62; details: HOP-62
[7] = tested on: OVCAR-5; details: OVCAR-5
[8] = tested on: 60 cancer cell lines; test: NCI 60-cell screen, SRB, whole panel (mean, delta, range)
[9] = tested on: CCRF-CEM; details: CCRF-CEM
[10] = tested on: RXF 393; details: RXF 393; 10^−5 molar
[11] = tested on: HT29; details: HT29
[12] = tested on: HCT-116; details: HCT-116
[13] = tested on: SK-OV-3; details: SK-OV-3
[14] = tested on: SF-295; details: SF-295
[15] = tested on: RPMI-8226; details: RPMI-8226
[16] = tested on: MCF7; details: MCF7
[17] = tested on: TK-10; details: TK-10
[18] = tested on: HL-60(TB); details: HL-60(TB); 10^−5 molar
[19] = tested on: NCI-H522; details: NCI-H522
[20] = tested on: NCI-H226; details: NCI-H226
[21] = tested on: NCI-H460; details: NCI-H460
[22] = tested on: HS 578T; details: HS 578T
[23] = tested on: SK-MEL-28; details: SK-MEL-28
[24] = tested on: COLO 205; details: COLO 205
[25] = tested on: SK-MEL-5; details: SK-MEL-5
[26] = tested on: A498; details: A498
[27] = tested on: OVCAR-8; details: OVCAR-8
[28] = tested on: DU-145; details: DU-145
[29] = tested on: U251; details: U251, five dose
[30] = tested on: BT-549; details: BT-549
[31] = tested on: SN12C; details: SN12C
[32] = tested on: HCT-15; details: HCT-15
[33] = tested on: M14; details: M14
[34] = tested on: KM12; test: cells; details: KM12
[35] = tested on: MDA-MB-231/ATCC; details: MDA-MB-231/ATCC
[36] = tested on: SW-620; details: SW-620
[37] = tested on: LOX IMVI; details: LOX IMVI, five dose
[38] = tested on: SR; details: SR
[39] = tested on: NCI/ADR-RES; details: NCI/ADR-RES
[40] = Homo sapiens, five dose, read-out: LC50 (the source's name)

For O=c1c2cc(Cl)ccc2sc2c(NCc3ccccc3)nc3ccccc3c12 [Compound N25, 6-(Benzylamino)-10-chloro-12H-thiochromeno[2,3-c]quinolin-12-one], the GI50 ([1]; Homo sapiens, five dose) was 8.56 µM, the LC50 (concentration killing 50% of cells) ([1]; Homo sapiens, five dose) was > 100 µM and the Growth percent ([1]; 10^−5 molar) was 102.93%. The TGI ([1]; five dose) was >100 µM, the GI50 ([2]; Homo sapiens, five dose) was 56.9 µM and the CC50 [2, 40] was > 100 µM. For the same molecule, the Growth percent ([2]; 10^−5 molar) was 72.70%, the TGI ([2]; five dose) was >100 µM and the GI50 ([3]; Homo sapiens, five dose) was 1.45 µM. It also gave an LC50 ([3]; Homo sapiens, five dose) of 9.91 µM, a Growth percent ([3]; 10^−5 molar) of 14.83% and a TGI ([3]; five dose) of 3.78 µM. The GI50 ([4]; Homo sapiens, T47D, five dose) was 1.26 µM, the CC50 ([4]; Homo sapiens, T47D, five dose, read-out: LC50 (the source's name)) was > 100 µM and the Growth percent ([4]; 10^−5 molar) was 38.08%. For the same molecule, the TGI ([4]; five dose) was 7.11 µM, the GI50 ([5]; Homo sapiens, K562, five dose) was > 100 µM and the CC50 ([5]; Homo sapiens, K562, five dose, read-out: LC50 (the source's name)) was > 100 µM. For the same molecule, the Growth percent ([5]; 10^−5 molar) was 90.61%, the TGI ([5]; five dose) was >100 µM and the Growth percent ([6]; 10^−5 molar) was 66.53%. It also gave a TGI ([6]; five dose) of 5.92 µM, a GI50 ([6]; Homo sapiens, five dose) of 2.43 µM and an LC50 (lethal concentration 50) ([6]; Homo sapiens, five dose) of 27.7 µM. For the same molecule, the GI50 ([7]; Homo sapiens, five dose) was > 100 µM, the CC50 [7, 40] was > 100 µM and the Growth percent ([7]; 10^−5 molar) was 91.27%. The TGI ([7]; five dose) was >100 µM, the GI50 ([8]; 60 cell, mean over panel, five dose) was 11.2 µM and the CC50 ([8]; 60 cell, mean over panel, five dose, read-out: LC50, Mean) was 91.2 µM. For the same molecule, the “Growth percent, Delta” value ([8]; delta over panel, 10^−5 molar) was 81.80%, the “Growth percent, Mean” value ([8]; mean over panel, 10^−5 molar) was 71.97% and the “TGI, Mean” value ([8]; mean over panel, five dose) was 53.70 µM. For the same molecule, the “Growth percent, Range” value ([8]; range over panel, 10^−5 molar) was 112.76%, the Growth percent ([9]; 10^−5 molar) was 102.34% and the TGI ([9]; five dose) was >100 µM. For the same molecule, the GI50 ([9]; Homo sapiens, five dose) was > 100 µM, the CC50 [9, 40] was > 100 µM and the Growth percent [10] was 71.08%. For the same molecule, the Growth percent ([11]; 10^−5 molar) was 77.16%, the TGI ([11]; five dose) was >100 µM and the LC50 (concentration killing 50% of cells) ([11]; Homo sapiens, HT-29, five dose) was > 100 µM. For the same molecule, the Growth percent ([12]; 10^−5 molar) was 66.87%, the TGI ([12]; five dose) was >100 µM and the GI50 ([12]; Homo sapiens, five dose) was 5.59 µM. For the same molecule, the LC50 (concentration killing 50% of cells) ([12]; Homo sapiens, five dose) was > 100 µM, the GI50 ([13]; Homo sapiens, five dose) was 3.56 µM and the CC50 [13, 40] was > 100 µM. It also gave a Growth percent ([13]; 10^−5 molar) of 36.71%, a TGI ([13]; five dose) of 13.90 µM and a GI50 ([14]; Homo sapiens, five dose) of 3.5 µM. The LC50 ([14]; Homo sapiens, five dose) was > 100 µM, the Growth percent ([14]; 10^−5 molar) was 74.33% and the TGI ([14]; five dose) was 16.50 µM. For the same molecule, the GI50 ([15]; Homo sapiens, five dose) was > 100 µM, the CC50 [15, 40] was > 100 µM and the Growth percent ([15]; 10^−5 molar) was 88.54%. The TGI ([15]; five dose) was >100 µM, the GI50 ([16]; Homo sapiens, five dose) was 0.04 µM and the CC50 [16, 40] was > 100 µM. The Growth percent ([16]; 10^−5 molar) was 16.01%, the TGI ([16]; five dose) was 18.60 µM and the GI50 ([17]; Homo sapiens, five dose) was 5.02 µM. The CC50 [17, 40] was > 100 µM, the Growth percent ([17]; 10^−5 molar) was 75.80% and the TGI ([17]; five dose) was 22.30 µM. For the same molecule, the Growth percent [18] was 98.82%, the GI50 ([19]; Homo sapiens, five dose) was 25.3 µM and the LC50 (concentration causing 50% net cell kill) ([19]; Homo sapiens, five dose) was > 100 µM. For the same molecule, the Growth percent ([19]; 10^−5 molar) was 75.71%, the TGI ([19]; five dose) was >100 µM and the GI50 ([20]; Homo sapiens, five dose) was 1.84 µM. The LC50 (concentration giving 50% net cell kill) ([20]; Homo sapiens, five dose) was > 100 µM, the Growth percent ([20]; 10^−5 molar) was 79.35% and the GI50 ([21]; Homo sapiens, five dose) was 5 µM. The LC50 ([21]; Homo sapiens, five dose) was > 100 µM, the Growth percent ([21]; 10^−5 molar) was 64.41% and the TGI ([21]; five dose) was >100 µM. It also gave a Growth percent ([22]; 10^−5 molar) of 34.73%, a TGI ([22]; five dose) of 21.20 µM and a GI50 ([22]; Homo sapiens, five dose) of 2.94 µM. The CC50 [22, 40] was > 100 µM, the LC50 ([23]; Homo sapiens, five dose) was > 100 µM and the Growth percent ([23]; 10^−5 molar) was 84.20%. The TGI ([23]; five dose) was >100 µM, the Growth percent ([24]; 10^−5 molar) was 80.79% and the TGI ([24]; five dose) was >100 µM. The LC50 ([24]; Homo sapiens, five dose) was > 100 µM, the GI50 ([25]; Homo sapiens, five dose) was 4.23 µM and the LC50 ([25]; Homo sapiens, five dose) was > 100 µM. The Growth percent ([25]; 10^−5 molar) was 92.81%, the TGI ([25]; five dose) was >100 µM and the Growth percent ([26]; 10^−5 molar) was 86.46%. For the same molecule, the TGI ([26]; five dose) was 39.20 µM, the GI50 ([26]; Homo sapiens, five dose) was 8.05 µM and the CC50 [26, 40] was > 100 µM. The GI50 ([27]; Homo sapiens, five dose) was 7.75 µM, the CC50 [27, 40] was > 100 µM and the Growth percent ([27]; 10^−5 molar) was 68.33%. The TGI ([27]; five dose) was >100 µM, the Growth percent ([28]; 10^−5 molar) was 74.80% and the TGI ([28]; five dose) was >100 µM. For the same molecule, the GI50 ([28]; Homo sapiens, five dose) was 5.5 µM, the CC50 [28, 40] was > 100 µM and the GI50 ([29]; Homo sapiens, U-251) was 4.41 µM. For the same molecule, the LC50 ([29]; Homo sapiens, U-251) was > 100 µM, the TGI [29] was 25.10 µM and the Growth percent ([30]; 10^−5 molar) was 97.19%. For the same molecule, the TGI ([30]; five dose) was >100 µM, the GI50 ([30]; Homo sapiens, five dose) was 20.5 µM and the CC50 [30, 40] was > 100 µM. For the same molecule, the GI50 ([31]; Homo sapiens, five dose) was 24.9 µM, the CC50 [31, 40] was > 100 µM and the Growth percent ([31]; 10^−5 molar) was 87.80%. For the same molecule, the TGI ([31]; five dose) was >100 µM, the Growth percent ([32]; 10^−5 molar) was 71.76% and the TGI ([32]; five dose) was >100 µM. For the same molecule, the GI50 ([32]; Homo sapiens, five dose) was 8.75 µM, the LC50 ([32]; Homo sapiens, five dose) was > 100 µM and the GI50 ([33]; Homo sapiens, five dose) was > 100 µM. For the same molecule, the LC50 ([33]; Homo sapiens, five dose) was > 100 µM, the Growth percent ([33]; 10^−5 molar) was 87.29% and the TGI ([33]; five dose) was >100 µM. The GI50 ([34]; Homo sapiens, five dose) was 48.3 µM, the LC50 ([34]; Homo sapiens, five dose) was > 100 µM and the Growth percent ([34]; 10^−5 molar) was 80.34%. For the same molecule, the TGI ([34]; five dose) was >100 µM, the GI50 ([35]; Homo sapiens, five dose) was 2.36 µM and the CC50 [35, 40] was > 100 µM. The Growth percent ([35]; 10^−5 molar) was 32.67%, the TGI ([35]; five dose) was 34.80 µM and the LC50 ([36]; Homo sapiens, five dose) was > 100 µM. The Growth percent ([36]; 10^−5 molar) was 78.97%, the TGI ([36]; five dose) was >100 µM and the GI50 ([37]; Homo sapiens) was > 100 µM. For the same molecule, the LC50 ([37]; Homo sapiens) was > 100 µM, the TGI [37] was >100 µM and the GI50 ([38]; Homo sapiens, five dose) was > 100 µM. The LC50 (50% lethal concentration) ([38]; Homo sapiens, five dose) was > 100 µM, the Growth percent ([38]; 10^−5 molar) was 85.46% and the TGI ([38]; five dose) was >100 µM. For the same molecule, the GI50 ([39]; Homo sapiens, five dose) was 43 µM, the CC50 [39, 40] was > 100 µM and the Growth percent ([39]; 10^−5 molar) was 77.36%. The TGI ([39]; five dose) was >100 µM.
